Data published in patent US8569327B2, “Phenanthroindolizidine derivative and NFκB inhibitor containing same as active ingredient” (Kabushiki Kaisha Yakult Honsha, priority 2008, dated 2013).

Key:
[1] = system: NFκB; experiment: Inhibitory action on the NFκB activity, luciferase assay in SW480/NRE-Luc cells; assay type: cell-based, human; conditions: for IC50: Homo sapiens, SW480, read-out: NFκB inhibitory activity IC50; for NFκB inhibitory activity IC50: SW480/NRE-Luc cells, compound 1 h then 50 ng/mL TNFα 4 h, luciferase
From the text: (§1) The action of the phenanthroindolizidine alkaloid compound of the present invention on the NFκB activity was studied using a luciferase assay. Human colon cancer SW480 cells were transfected with pNFκB-Luc Plasmid (Stratagene), which is a reporter vector in which a five-time tandem repeat of the NFκB responsive element (NRE) is integrated into the upstream of the luciferase gene, using Lipofectamine 2000 (Invitrogen Corporation) in accordance with the attached operating procedure. Subsequently, the cells were cultured in an RPMI1640 medium containing 10% FBS, 100 U/mL penicillin, 100 μg/mL streptomycin, and 0.5 mg/mL G418 to produce SW480 cells having the luciferase gene, the expression of which is regulated by NRE, stably introduced therein (SW480/NRE-Luc cells). Likewise, SW480 cells were transfected with pGL3-Control Vector (Promega Corporation), which is a reporter vector in which the SV40 promoter is integrated into the upstream of the luciferase gene, to produce SW480 cells having the luciferase gene, the expression of which is regulated by the SV40 promoter, stably introduced therein (SW480/SV40-Luc cells). The SW480/NRE-Luc cells or the SW480/SV40-Luc cells were suspended in an RPMI1640 medium containing 10% FBS, 100 U/mL penicillin, and 100 μg/mL streptomycin (10% FBS/RPMI1640), and then seeded in a 96-well microplate, followed by culturing under conditions of 5% CO2 and at 37° C. (5000 cells/well). After an overnight culture, the compound of the present invention was added, followed by culturing for one hour. Further, 50 ng/mL TNFα (Sigma-Aldrich Corporation) was added, followed by culturing for four hours. Subsequently, a Steady-Glo Luciferase Assay reagent (Promega Corporation) was added, and the luminescent intensity was detected by SpectraMax M5e (Molecular Devices, Inc.) to measure the intracellular luciferase activity. It is to be noted that the action of the compound of the present invention on the NFκB activity or the SV40 promoter activity was shown as IC50 values (the concentration of a test compound needed for 50% inhibition of the induction of the luciferase expression).

[2] = system: SV40 promoter; experiment: SV40 promoter activity, luciferase assay in SW480/SV40-Luc cells; assay type: cell-based, human; conditions: for IC50: Homo sapiens, SW480, read-out: SV40 promoter inhibitory activity IC50; for SV40 promoter inhibitory activity IC50: SW480/SV40-Luc cells, luciferase
From the text: as §1

[3] = system: human colon cancer SW480 cells; experiment: Inhibitory action on the proliferation of SW480 cells; assay type: cell-based; conditions: 48 hours, TetraColor ONE; for IC50: Homo sapiens, SW480
Protocol: (§2) The action of the phenanthroindolizidine alkaloid compound of the present invention on the proliferation of human colon cancer SW480 cells, HT-29 cells, and human non-small cell lung cancer A549 cells was studied. The SW480 cells were suspended in a 10% FBS/RPMI1640 and then seeded in a 96-well microplate, followed by culturing in 5% CO2 at 37° C. (2000 cells/well). The A549 cells and the HT-29 cells were each suspended in a DMEM medium containing 10% FBS, 100 U/mL penicillin, and 100 μg/mL streptomycin (10% FBS/DMEM) and a DMEM F-12 HAM medium containing 10% FBS, 100 U/mL penicillin, and 100 μg/mL streptomycin (10% FBS/DMEM F12 HAM), and then seeded in 96-well microplates, followed by culturing in 5% CO2 at 37° C. (1000 cells/well). After an overnight culture, the compound of the present invention was added, followed by further culturing for 48 hours (SW480 cells) and 96 hours (A549 cells and HT-29 cells). After culturing, the number of viable cells was counted using TetraColor ONE (Seikagaku Corporation) in accordance with the attached operating procedure. The results were expressed as the concentration of a test compound needed for 50% inhibition of the proliferation of the cells (IC50).

[4] = system: human colon cancer HT-29 cells; experiment: Inhibitory action on the proliferation of HT-29 cells; assay type: cell-based; conditions: 96 hours, TetraColor ONE; for IC50: Homo sapiens, HT-29
Protocol: as §2

[5] = system: human non-small cell lung cancer A549 cells; experiment: Inhibitory action on the proliferation of A549 cells; assay type: cell-based; conditions: 96 hours, TetraColor ONE; for IC50: Homo sapiens, A549
Protocol: as §2

[6] = system: mice transplanted with mouse fibrosarcoma Meth A cells; experiment: Animal toxicity test; assay type: in vivo; conditions: intravenous days 1, 5, 9, observed three weeks
Protocol: Also, the toxicity of known phenanthroindolizidine alkaloid compounds, namely (12aS,13S)-6,7-dimethoxy-9,10,11,12,12a,13-hexahydro-9a-aza-cyclopenta[b]triphenylene-3,13-diol (known compound 1; refer to WO01/023384) and (12aS,13S)-3,6,7-trimethoxy-9,10,11,12,12a,13-hexahydro-9a-aza-cyclopenta[b]triphenylene-13-ol (known compound 2; refer to Planta Med., 2002, 68: 186-188), was simultaneously studied. To a control group, a physiological saline solution, a solvent, was administered. As a result, as shown in the following Tables 35 and 36, all the mice survived in a group administered with the compound of the present invention.

Compound	IC50 [1] [ng/mL]	IC50 [2] [ng/mL]	IC50 [3] [ng/mL]	IC50 [4] [ng/mL]	IC50 [5] [ng/mL]	Mortality rate ([6]; total dose 25 mg/kg)	Mortality rate ([6]; total dose 50 mg/kg)	NFκB inhibitory activity IC50 [1] [ng/mL]	SV40 promoter inhibitory activity IC50 [2] [ng/mL]	SW480 proliferation inhibitory action IC50 [3] [ng/mL]	HT-29 proliferation inhibitory action IC50 [4] [ng/mL]	A549 proliferation inhibitory action IC50 [5] [ng/mL]	Mortality rate ([6]; total dose 25 mg/kg, 25 mg/kg)	Mortality rate ([6]; total dose 25 mg/kg, listed as known compound 2, 25 mg/kg)	Mortality rate ([6]; total dose 50 mg/kg, 50 mg/kg)	Mortality rate ([6]; total dose 50 mg/kg, listed as known compound 2, 50 mg/kg)	Mortality rate ([6]; total dose 50 mg/kg, listed as known compound 1, 50 mg/kg)
COc1cc2c3c(c4ccccc4c2cc1OC)[C@@H](O)[C@H]1CCCN1C3.Cl [Compound 2, (12aR,13R)-6,7-dimethoxy-9,10,11,12,12a,13-hexahydro-9a-aza-cyclopenta[b]triphenylene-13-ol hydrochloride]	387	> 10000	1020	204	211	0/5	0/5	–	–	–	–	–	–	–	–	–	–
CCc1ccc2c3c(c4cc(OC)c(OC)cc4c2c1)CN1CCC[C@@H]1[C@@H]3O.Cl [Compound 4, (12aR,13R)-3-ethyl-6,7-dimethoxy-9,10,11,12,12a,13-hexahydro-9a-aza-cyclopenta[b]triphenylene-13-ol hydrochloride]	201	> 10000	513	121	101	0/5	0/5	–	–	–	–	–	–	–	–	–	–
COc1cc2c3c(c4ccc(F)cc4c2cc1OC)[C@@H](O)[C@H]1CCCN1C3.Cl [Compound 6, (12aR,13R)-3-fluoro-6,7-dimethoxy-9,10,11,12,12a,13-hexahydro-9a-aza-cyclopenta[b]triphenylene-13-ol hydrochloride]	166	> 10000	567	38.8	34.1	0/5	0/5	–	–	–	–	–	–	–	–	–	–
COc1cc2c3c(c4ccc(OC(C)=O)cc4c2cc1OC)[C@H](O)[C@@H]1CCCN1C3.Cl [Compound 7, acetic acid(12aS,13S)-13-hydroxy-6,7-dimethoxy-9,10,11,12,12a,13-hexahydro-9a-aza-cyclopenta[b]triphenylene-3-yl ester hydrochloride]	–	–	–	–	–	0/5	0/5	0.25	>100	0.41	0.080	0.63	–	–	–	–	–
COc1cc2c3c(c4ccc(OC(C)=O)cc4c2cc1OC)[C@H](OC(C)=O)[C@@H]1CCCN1C3.Cl [Compound 8, acetic acid(12aS,13S)-3-acetoxy-6,7-dimethoxy-9,10,11,12,12a,13-hexahydro-9a-aza-cyclopenta[b]triphenylene-13-yl ester hydrochloride]	–	–	–	–	–	0/5	0/5	63.2	>1000	17.0	5.8	1.5	–	–	–	–	–
COc1cc2c3c(c4ccc(OC(=O)N5CCC(N6CCCCC6)CC5)cc4c2cc1OC)[C@H](O)[C@@H]1CCCN1C3 [Compound 13, [1,4′]bipiperidinyl-1′-carboxylic acid(12aS,13S)-13-hydroxy-6,7-dimethoxy-9,10,11,12,12a,13-hexahydro-9a-aza-cyclopenta[b]triphenylene-3-yl ester]	–	–	–	–	–	0/5	0/5	20.3	>1000	19.5	21.6	7.4	–	–	–	–	–
COc1cc2c3c(c4ccc(OC(C)=O)cc4c2cc1OC)C(F)[C@@H]1CCCN1C3.Cl (stereo partly drawn) [Compound 14, acetic acid(S)-13-fluoro-6,7-dimethoxy-9,10,11,12,12a,13-hexahydro-9a-aza-cyclopenta[b]triphenylene-3-yl ester hydrochloride]	–	–	–	–	–	0/5	0/5	1.7	>100	2.1	0.62	0.23	–	–	–	–	–
COc1cc2c3c(c4ccc(OC(=O)c5cccs5)cc4c2cc1OC)[C@H](O)[C@@H]1CCCN1C3.Cl [Compound 19, thiophene-2-carboxylic acid(12aS,13S)-13-hydroxy-6,7-dimethoxy-9,10,11,12,12a,13-hexahydro-9a-aza-cyclopenta[b]triphenylene-3-yl ester hydrochloride]	–	–	–	–	–	0/5	0/5	3.0	>100	1.3	1.69	0.82	–	–	–	–	–
COc1ccc2c3c(c4cc(OC)c(OC)cc4c2c1)CN1CCC[C@H]1[C@H]3O [Known Compound 2, (12aS,13S)-3,6,7-trimethoxy-9,10,11,12,12a,13-hexahydro-9a-aza-cyclopenta[b]triphenylene-13-ol, reference compound]	–	–	–	–	–	–	–	–	–	–	–	–	2/5	some of the mice also died	5/5	all the mice died	–
COc1cc2c3c(c4ccc(O)cc4c2cc1OC)[C@H](O)[C@@H]1CCCN1C3 [Known compound 1, (12aS,13S)-6,7-dimethoxy-9,10,11,12,12a,13-hexahydro-9a-aza-cyclopenta[b]triphenylene-3,13-diol, reference compound]	–	–	–	–	–	0/5	–	–	–	–	–	–	–	–	5/5	–	all the mice died
benzhydryl-((S)-6,7-dimethoxy-3-pyrrolidine-9,10,11,12,12a,13-hexahydro-9a-aza-cyclopenta[b]triphenylene-3-yl)-amine methanesulfonate [Compound 58]	–	–	–	–	–	–	–	16.2	>10000	42.3	52.2	20.7	–	–	–	–	–
